Measurements from the supplement of paper PMC11208160.

Experiment: recombinant barcode read abundance after kanamycin selection (control-corrected) (log10(CPM+1)); higher = more efficient recombination; sequences stand for … in AGTGCAGAGAAAATCGGCCAGTTTTCTCTGCCTGCAGTCCGCATGCCGT…AGATTTATGCAGCGGACTGCCTTTCTCCCAAAGTGATAAACCGGACAGTATCATGGACCGGTTTTCCCGGTAATCCGTATTTGCAAGGTTGGTTTCACT; site = the 11-nt target
Method: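 Pooled E. coli target-specificity screen for the IS621 bridge recombinase. Each library plasmid pairs an 11-nt target (CT core) with a bridge RNA whose target-binding loop (9-nt LTG + 4-nt RTG) is reprogrammed; the rest of the 177-nt WT IS621 bridge RNA scaffold is fixed. The plasmid is co-electroporated with a WT donor plasmid; recombinase is induced with 0.1 mM IPTG and recombinants are selected on kanamycin. Recombinant barcodes are sequenced, converted to CPM, averaged over two biological replicates and corrected by the unselected control CPM. Molecule = full bridge RNA written as DNA: LTG = specificity nt 1-9, RTG = reverse complement of specificity nt 8-11, in the WT scaffold.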
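Note: IS621 recombinase and bridge RNA in Escherichia coli cells.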

Sequence	recombinant barcode read abundance (log10)
AAGCCCTCTTGGGTTCTAACCTGTTGCTT (site AAGTCCTCTAA)	0.0167
AAGCCTTCTTGGGTTCTAACCTGTTGCTG (site AAGCCTTCTCA)	1.68
AAGCCTTCTTGGGTTCTAACCTGTTGCTG (site GAGCCTTCTCT)	0.236
AAGCGAACTTGGGTTCTAACCTGTTGCCT (site AAGCAAACTAG)	0.274
AAGCGAACTTGGGTTCTAACCTGTTGCCT (site AAGCCAACTAG)	0.238
AAGCGAACTTGGGTTCTAACCTGTTGCCT (site AAGCGAACTAG)	2.07
AAGCGAACTTGGGTTCTAACCTGTTGCCT (site AAGCTAACTAG)	0.319
AAGCTAACTTGGGTTCTAACCTGTTGCCT (site AAGCAAACTAG)	0.044
AAGCTAACTTGGGTTCTAACCTGTTGCCT (site AAGCCAACTAG)	0.299
AAGCTAACTTGGGTTCTAACCTGTTGCCT (site AAGCGAACTAG)	0.248
AAGCTAACTTGGGTTCTAACCTGTTGCCT (site AAGCTAACTAG)	1.77
AAGGCCTCTTGGGTTCTAACCTGTTGCCA (site AAGGCCTCTAT)	0.0333
AAGGCCTCTTGGGTTCTAACCTGTTGCCA (site AAGGCCTCTTG)	1.88
AAGGCCTCTTGGGTTCTAACCTGTTGCTT (site AAGACCTCTAA)	0.775
AAGGCCTCTTGGGTTCTAACCTGTTGCTT (site AAGCCCTCTAA)	0.156
AAGGCCTCTTGGGTTCTAACCTGTTGCTT (site AAGGCCTCTAA)	2.74

Sequence	recombinant barcode read abundance (log10)
AAGGCCTCTTGGGTTCTAACCTGTTGCTT (site AAGTCCTCTAA)	0.058
AAGGGCCCTTGGGTTCTAACCTGTTGCCT (site AAGGGCCCTAG)	2.1
AAGGGCCCTTGGGTTCTAACCTGTTGCCT (site CAGGGCCCTAG)	0.339
AAGGGCCCTTGGGTTCTAACCTGTTGCCT (site GAGGGCCCTAG)	0.122
AAGGGCCCTTGGGTTCTAACCTGTTGCCT (site TAGGGCCCTAG)	2.24
AAGGGCGCTTGGGTTCTAACCTGTTGCCT (site AAGGACGCTAG)	0.618
AAGGGCGCTTGGGTTCTAACCTGTTGCCT (site AAGGCCGCTAG)	0.238
AAGGGCGCTTGGGTTCTAACCTGTTGCCT (site AAGGGCGCTAG)	1.49
AAGGGCGCTTGGGTTCTAACCTGTTGCCT (site AAGGTCGCTAG)	0.261
AAGGGGCCTTGGGTTCTAACCTGTTGCCT (site AAGGGGCCTAG)	1.8
AAGGGGCCTTGGGTTCTAACCTGTTGCCT (site CGATCTACTCT)	0.271
AAGGGGTCTTGGGTTCTAACCTGTTGCTT (site AAGGGGTCTAA)	3.02
AAGGGGTCTTGGGTTCTAACCTGTTGCTT (site ATGGGGTCTAA)	0.898
AAGGTCGCTTGGGTTCTAACCTGTTGCCT (site AAGGACGCTAG)	0.33
AAGGTCGCTTGGGTTCTAACCTGTTGCCT (site AAGGCCGCTAG)	1.14
AAGGTCGCTTGGGTTCTAACCTGTTGCCT (site AAGGGCGCTAG)	0.347
